For one assay, the target named is T1, PRKG1 (Homo sapiens, UniProt Q13976).
T1 sequence (Q13976 1-671): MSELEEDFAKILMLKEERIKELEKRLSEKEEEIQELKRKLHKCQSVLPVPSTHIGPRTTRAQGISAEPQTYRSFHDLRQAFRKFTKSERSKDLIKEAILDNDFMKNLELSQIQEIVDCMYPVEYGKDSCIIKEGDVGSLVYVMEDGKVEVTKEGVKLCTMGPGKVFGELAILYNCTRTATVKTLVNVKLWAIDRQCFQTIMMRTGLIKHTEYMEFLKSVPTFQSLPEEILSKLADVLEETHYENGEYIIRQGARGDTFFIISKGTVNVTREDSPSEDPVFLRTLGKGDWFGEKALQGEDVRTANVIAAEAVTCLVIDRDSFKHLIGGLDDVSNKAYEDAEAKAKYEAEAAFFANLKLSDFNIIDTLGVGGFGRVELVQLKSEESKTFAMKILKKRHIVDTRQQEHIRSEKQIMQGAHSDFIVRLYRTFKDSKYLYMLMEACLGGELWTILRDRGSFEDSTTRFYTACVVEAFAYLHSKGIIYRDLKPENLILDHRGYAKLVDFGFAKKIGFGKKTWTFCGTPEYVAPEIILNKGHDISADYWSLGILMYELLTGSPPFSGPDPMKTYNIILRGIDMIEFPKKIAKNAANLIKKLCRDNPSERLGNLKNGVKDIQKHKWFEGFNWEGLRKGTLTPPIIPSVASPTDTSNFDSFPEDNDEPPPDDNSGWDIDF
The assay is described as follows: biochemical. The following applies: competitive binding, percent of DMSO control. Details: Eurofins DiscoverX kinase panel, competitive binding assay at 1 uM, percent of DMSO control. The method, boiled down: (§1)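 Single-point profiling at 1 µM compound in a competition-binding format against 96 kinases, read out as POC relative to control; n = 1.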

Another assay deals with T2, EPHB3 (Homo sapiens, UniProt P54753).
T2 sequence (P54753 1-998): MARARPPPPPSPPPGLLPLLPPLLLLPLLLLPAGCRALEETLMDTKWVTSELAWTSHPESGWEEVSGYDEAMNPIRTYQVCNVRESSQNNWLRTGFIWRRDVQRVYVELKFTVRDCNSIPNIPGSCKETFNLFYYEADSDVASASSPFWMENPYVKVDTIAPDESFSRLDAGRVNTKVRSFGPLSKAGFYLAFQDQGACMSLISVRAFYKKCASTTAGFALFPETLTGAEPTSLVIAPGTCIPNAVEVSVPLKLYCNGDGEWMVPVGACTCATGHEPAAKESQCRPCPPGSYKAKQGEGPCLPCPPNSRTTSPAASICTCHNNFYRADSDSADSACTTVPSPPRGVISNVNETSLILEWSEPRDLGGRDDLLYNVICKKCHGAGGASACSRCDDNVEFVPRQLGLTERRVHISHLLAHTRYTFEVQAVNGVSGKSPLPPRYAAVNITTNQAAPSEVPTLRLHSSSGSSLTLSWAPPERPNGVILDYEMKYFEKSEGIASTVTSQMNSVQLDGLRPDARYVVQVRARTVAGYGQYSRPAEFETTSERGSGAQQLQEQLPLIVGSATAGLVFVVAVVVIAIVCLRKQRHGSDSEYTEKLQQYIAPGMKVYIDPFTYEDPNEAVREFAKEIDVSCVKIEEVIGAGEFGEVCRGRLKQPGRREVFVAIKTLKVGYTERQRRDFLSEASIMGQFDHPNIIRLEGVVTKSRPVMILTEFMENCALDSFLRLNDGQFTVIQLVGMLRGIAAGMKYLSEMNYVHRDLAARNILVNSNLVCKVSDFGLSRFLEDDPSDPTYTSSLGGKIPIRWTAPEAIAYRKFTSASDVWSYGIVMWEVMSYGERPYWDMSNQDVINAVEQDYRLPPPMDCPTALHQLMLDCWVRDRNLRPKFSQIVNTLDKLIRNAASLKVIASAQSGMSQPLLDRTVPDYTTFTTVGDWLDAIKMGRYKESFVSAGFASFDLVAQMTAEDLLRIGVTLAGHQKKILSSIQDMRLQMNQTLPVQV
The assay can be described thus: biochemical. Further details: Eurofins DiscoverX kinase panel, competitive binding assay at 1 uM, percent of DMSO control. To be noted: competitive binding, percent of DMSO control. The procedure, abridged: as §1

[1] abbreviates: read-out: Kinome Profiling performed by Eurofins DiscoverX / AM-0277, 1.0 µM / POC.
The mark [2] stands for this setting: read-out: Kinome Profiling performed by Eurofins DiscoverX / AM-1882, 1.0 µM / POC.
The mark [3] stands for this setting: read-out: Kinome Profiling performed by Eurofins DiscoverX / AM-5308, 1.0 µM / POC.

Among the data in PMC10824666 (Nature Cancer, 2023) are remaining activity values, retold here.

Where two headings read alike, the source gives them in different places.

As for `CC(C)(CO)Nc1ccc(C(=O)Nc2cccc(S(=O)(=O)C3CCCC3)c2)c(N2CCC3(CC2)CC3)n1` [AM-0277], the remaining activity at 1 µM at PRKG1 (setting [1]) and at EPHB3 (setting [1]) was 87% throughout.
As for `CC(C)(C)NS(=O)(=O)c1cccc(NC(=O)c2ccc(S(=O)(=O)NC(C)(C)C)cc2N2CCC3(CC2)CC3)c1` [AM-1882], the remaining activity at 1 µM came to 89% at PRKG1 (setting [2]) and 98% at EPHB3 (setting [2]).
For `C[C@@H]1CN(c2cccc(NC(=O)c3ccc(NS(=O)(=O)CCO)cc3N3CCC4(CC3)CC4)n2)CCO1` [AM-5308], the remaining activity at 1 µM at PRKG1 (setting [3]) came to 100%; on EPHB3 (setting [3]) it was 44%.
